What was measured:
[1] = target: T1, Muscarinic acetylcholine receptor M5 (Homo sapiens) (UniProt P08912); test: Agonist activity at human muscarinic M5 expressed in CHO cells assessed as stimulation of calcium mobilization relative to acetyle choline; type: functional, cell-based; set-up: concentration or dose not given beside the values
T1 sequence (whole entry): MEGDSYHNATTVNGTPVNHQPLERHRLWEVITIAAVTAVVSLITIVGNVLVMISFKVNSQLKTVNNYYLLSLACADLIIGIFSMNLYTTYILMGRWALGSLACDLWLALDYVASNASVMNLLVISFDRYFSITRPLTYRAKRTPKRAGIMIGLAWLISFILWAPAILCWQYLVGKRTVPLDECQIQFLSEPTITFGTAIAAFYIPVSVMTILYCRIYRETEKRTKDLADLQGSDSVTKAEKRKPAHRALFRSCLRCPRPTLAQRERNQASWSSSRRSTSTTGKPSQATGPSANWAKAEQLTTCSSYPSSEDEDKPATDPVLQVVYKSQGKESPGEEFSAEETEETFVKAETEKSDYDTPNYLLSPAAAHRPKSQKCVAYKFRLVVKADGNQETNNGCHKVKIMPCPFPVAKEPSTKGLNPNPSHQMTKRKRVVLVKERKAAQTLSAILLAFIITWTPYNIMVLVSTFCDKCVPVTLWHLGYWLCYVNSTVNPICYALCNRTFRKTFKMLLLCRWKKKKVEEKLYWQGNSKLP

[2] = target: T2, Muscarinic acetylcholine receptor M1 (Rattus norvegicus, UniProt P08482); test: Agonist activity at rat muscarinic M1 expressed in CHO cells assessed as stimulation of calcium mobilization; type: functional, cell-based
T2 sequence (P08482 whole entry): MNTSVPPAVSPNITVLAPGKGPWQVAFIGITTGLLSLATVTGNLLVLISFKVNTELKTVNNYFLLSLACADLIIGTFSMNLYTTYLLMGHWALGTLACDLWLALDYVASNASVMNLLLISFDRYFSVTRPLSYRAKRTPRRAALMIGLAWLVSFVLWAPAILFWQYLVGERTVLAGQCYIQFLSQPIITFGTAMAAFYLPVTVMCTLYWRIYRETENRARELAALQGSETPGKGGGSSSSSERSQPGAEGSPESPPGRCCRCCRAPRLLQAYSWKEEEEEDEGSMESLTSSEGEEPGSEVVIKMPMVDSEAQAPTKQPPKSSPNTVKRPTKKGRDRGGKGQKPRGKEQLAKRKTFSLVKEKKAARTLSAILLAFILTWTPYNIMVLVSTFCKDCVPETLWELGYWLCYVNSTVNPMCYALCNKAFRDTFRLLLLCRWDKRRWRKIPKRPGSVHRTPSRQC

[3] = Ratio of AUC in rat brain to AUC in rat plasma; type: ADME, tissue-based; conditions: read-out: Ratio AUC
[4] = target: T3, Muscarinic acetylcholine receptor M5 (Homo sapiens, UniProt P08912); test: Agonist activity at human muscarinic M5 expressed in CHO cells assessed as stimulation of calcium mobilization; type: functional, cell-based
T3 sequence (P08912 whole entry): T1 sequence (whole entry)

[5] = target: T4, Muscarinic acetylcholine receptor M2 (Rattus norvegicus, UniProt P10980); test: Agonist activity at rat muscarinic M2 expressed in CHO cells assessed as stimulation of calcium mobilization; type: functional, cell-based
T4 sequence (P10980 whole entry): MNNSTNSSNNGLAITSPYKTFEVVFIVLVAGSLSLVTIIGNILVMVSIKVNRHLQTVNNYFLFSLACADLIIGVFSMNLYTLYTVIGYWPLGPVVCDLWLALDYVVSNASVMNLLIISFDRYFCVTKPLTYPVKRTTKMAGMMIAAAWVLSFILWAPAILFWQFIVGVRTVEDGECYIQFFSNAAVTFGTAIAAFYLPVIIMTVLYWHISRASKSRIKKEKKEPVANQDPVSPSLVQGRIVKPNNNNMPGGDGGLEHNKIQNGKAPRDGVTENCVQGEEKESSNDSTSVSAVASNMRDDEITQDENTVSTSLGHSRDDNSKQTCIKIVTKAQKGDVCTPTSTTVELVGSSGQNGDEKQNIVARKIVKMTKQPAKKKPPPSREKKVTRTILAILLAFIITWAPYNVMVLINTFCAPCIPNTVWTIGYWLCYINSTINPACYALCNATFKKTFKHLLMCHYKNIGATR

[6] = target: T5, Muscarinic acetylcholine receptor M4 (Rattus norvegicus, UniProt P08485); test: Agonist activity at rat muscarinic M4 expressed in CHO cells assessed as stimulation of calcium mobilization; type: functional, cell-based
T5 sequence (P08485 whole entry): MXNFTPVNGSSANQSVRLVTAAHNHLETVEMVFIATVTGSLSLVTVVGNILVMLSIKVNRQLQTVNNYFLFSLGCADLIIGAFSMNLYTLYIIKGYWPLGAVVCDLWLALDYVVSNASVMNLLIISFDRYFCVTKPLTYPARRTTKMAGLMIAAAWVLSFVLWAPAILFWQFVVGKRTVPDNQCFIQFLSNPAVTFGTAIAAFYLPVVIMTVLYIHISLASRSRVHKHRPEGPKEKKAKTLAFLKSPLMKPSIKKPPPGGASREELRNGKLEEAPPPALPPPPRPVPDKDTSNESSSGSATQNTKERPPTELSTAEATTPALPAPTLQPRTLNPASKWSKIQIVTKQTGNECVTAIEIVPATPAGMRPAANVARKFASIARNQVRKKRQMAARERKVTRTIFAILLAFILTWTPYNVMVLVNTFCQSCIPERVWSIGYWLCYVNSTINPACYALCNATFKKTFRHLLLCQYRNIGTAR

[7] = target: Muscarinic acetylcholine receptor M3 (Homo sapiens) (UniProt P20309); test: Agonist activity at human muscarinic M3 expressed in CHO cells assessed as stimulation of calcium mobilization at 30 uM; type: functional, cell-based
Sequence of Muscarinic acetylcholine receptor M3 (Homo sapiens) (P20309 whole entry, looked up): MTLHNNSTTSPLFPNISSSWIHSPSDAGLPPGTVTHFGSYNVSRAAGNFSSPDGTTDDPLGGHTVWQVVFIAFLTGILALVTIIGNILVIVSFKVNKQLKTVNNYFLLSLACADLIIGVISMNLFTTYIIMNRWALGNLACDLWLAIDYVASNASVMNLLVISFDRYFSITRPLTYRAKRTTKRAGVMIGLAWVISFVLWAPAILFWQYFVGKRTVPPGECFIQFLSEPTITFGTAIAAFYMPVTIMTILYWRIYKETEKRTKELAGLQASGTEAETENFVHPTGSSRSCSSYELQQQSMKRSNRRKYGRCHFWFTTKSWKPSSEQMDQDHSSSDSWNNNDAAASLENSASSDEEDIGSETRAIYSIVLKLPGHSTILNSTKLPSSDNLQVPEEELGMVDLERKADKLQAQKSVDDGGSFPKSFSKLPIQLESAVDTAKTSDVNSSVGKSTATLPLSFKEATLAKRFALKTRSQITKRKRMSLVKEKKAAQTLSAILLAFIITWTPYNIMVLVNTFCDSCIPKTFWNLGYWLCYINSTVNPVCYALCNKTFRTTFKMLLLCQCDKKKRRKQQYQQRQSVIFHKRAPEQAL

[8] = target: T6, Muscarinic acetylcholine receptor M1 (Rattus norvegicus) (UniProt P08482); test: Agonist activity at rat muscarinic M1 expressed in CHO cells assessed as stimulation of calcium mobilization at 30 uM; type: functional, cell-based
T6 sequence (whole entry): T2 sequence (P08482 whole entry)

Row | SMILES | Activity [1] [%] | EC50 [2] [µM] | Kp [3] | EC50 [4] [µM] | EC50 [5] [µM] | EC50 [6] [µM] | Activity [7] [%] | Activity [8] [%]
1 | O=C1C(=O)N(Cc2ccc(-c3ccc(F)nc3)cc2)c2ccc(OC(F)(F)F)cc21 | 80 | > 30 | 0.25 | 3.6 |  |  |  | 
2 | COc1ccccc1-c1ccc(CN2C(=O)C(=O)c3cc(OC(F)(F)F)ccc32)cc1 | 70 | > 30 | 0.25 | 3.9 |  |  |  | 
3 | O=C1C(=O)N(Cc2ccc(-c3ccsc3)cc2)c2ccc(OC(F)(F)F)cc21 | 85 | > 30 | 0.25 | 2.8 |  |  |  | 
4 | COc1ccc(CN2C(=O)C(=O)c3ccc(OC(F)(F)F)cc32)cc1 |  |  |  | 5.7 |  |  |  | 
5 | O=C1C(=O)N(Cc2ccc(Br)cc2)c2ccccc21 |  |  | 0.25 |  | > 30 | > 30 |  | 
6 | O=C1C(=O)N(Cc2ccc(-c3ccc(Cl)nc3)cc2)c2ccc(OC(F)(F)F)cc21 | 85 | > 30 | 0.25 | 4.8 |  |  |  | 
7 | O=C1C(=O)N(Cc2ccc(C(F)(F)F)cc2)c2c(Cl)cccc21 |  |  | 0.25 |  |  | > 10 |  | 
8 | Cn1cc(-c2ccc(CN3C(=O)C(=O)c4cc(OC(F)(F)F)ccc43)cc2)cn1 | 85 | > 30 | 0.25 | 3.3 |  |  |  | 
9 | O=C1C(=O)N(Cc2ccc(-c3ccccc3)cc2)c2cc(OC(F)(F)F)ccc21 |  |  |  | 2.7 |  |  |  | 
10 | O=C1C(=O)N(Cc2ccc(Oc3ccccc3)cc2)c2ccc(OC(F)(F)F)cc21 | 75 |  |  | 1.9 |  |  |  | 
11 | COc1ccc(CN2C(=O)C(=O)c3cc(OC(F)(F)F)ccc32)cc1 |  |  | 0.25 | 1.1 | > 30 | > 30 | 30 | 30
12 | O=C1C(=O)N(Cc2ccc(-c3ccccc3)cc2)c2ccc(OC(F)(F)F)cc21 | 85 | > 30 | 0.25 | 2.7 |  |  |  | 
